According to the supplement of paper PMC10307832:

Columns and labels:
Assay in all cases: relative viability (nuclei count vs DMSO), 5 days (fraction); higher = more cells survive
LK-2 = system: LK-2
Procedure, shortened: (§1)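 Lung cancer cell lines in 1536-well plates got either a single drug or a fixed anchor-drug dose together with five library-drug doses (not always all listed) in √10 steps, by pin tool, on the day after seeding. Nuclei were counted after 5 days, and relative viability is the treated-to-vehicle ratio of nuclei counts. Values are medians of duplicate plates.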

NCI-H647 = system: NCI-H647
Procedure, shortened: as §1

A-427 = system: A-427
Procedure, shortened: as §1

SK-LU-1 = system: SK-LU-1
Procedure, shortened: as §1

NCI-H2085 = system: NCI-H2085
Procedure, shortened: as §1

NCI-H322M = system: NCI-H322M
Procedure, shortened: as §1

NCI-H3122 = system: NCI-H3122
Procedure, shortened: as §1

PC-14 = system: PC-14
Procedure, shortened: as §1

UMC-11 = system: UMC-11
Procedure, shortened: as §1

NCI-H1993 = system: NCI-H1993
Procedure, shortened: as §1

NCI-H1734 = system: NCI-H1734
Procedure, shortened: as §1

H3255 = system: H3255
Procedure, shortened: as §1

NCI-H1651 = system: NCI-H1651
Procedure, shortened: as §1

EKVX = system: EKVX
Procedure, shortened: as §1

NCI-H460 = system: NCI-H460
Procedure, shortened: as §1

RERF-LC-KJ = system: RERF-LC-KJ
Procedure, shortened: as §1

NCI-H1437 = system: NCI-H1437
Procedure, shortened: as §1

NCI-H2087 = system: NCI-H2087
Procedure, shortened: as §1

NCI-H2405 = system: NCI-H2405
Procedure, shortened: as §1

NCI-H2347 = system: NCI-H2347
Procedure, shortened: as §1

NCI-H358 = system: NCI-H358
Procedure, shortened: as §1

COR-L23 = system: COR-L23
Procedure, shortened: as §1

NCI-H23 = system: NCI-H23
Procedure, shortened: as §1

LXF-289 = system: LXF-289
Procedure, shortened: as §1

Structure (SMILES): Nc1cccc2c1CN(C1CCC(=O)NC1=O)C2=O (stereo not given) [Lenalidomide] + C[C@]1(O)C[C@@H](c2nc(-c3ccc4ccc(-c5ccccc5)nc4c3)c3c(N)nccn32)C1 [Linsitinib] (partner 1 µM)
- relative viability (LK-2; first compound 0.253 µM): 0.427
- relative viability (LK-2; first compound 0.8 µM): 0.355
- relative viability (LK-2; first compound 2.53 µM): 0.428
- relative viability (LK-2; first compound 8 µM): 0.451
- relative viability (NCI-H647; first compound 0.253 µM): 1.16
- relative viability (NCI-H647; first compound 0.8 µM): 1.14
- relative viability (NCI-H647; first compound 2.53 µM): 1.32
- relative viability (NCI-H647; first compound 8 µM): 0.932
- relative viability (A-427; first compound 0.253 µM): 1.12
- relative viability (A-427; first compound 2.53 µM): 1.11
- relative viability (A-427; first compound 8 µM): 1.1
- relative viability (SK-LU-1; first compound 0.253 µM): 1.1
- relative viability (SK-LU-1; first compound 0.8 µM): 1.01
- relative viability (SK-LU-1; first compound 2.53 µM): 1.19
- relative viability (SK-LU-1; first compound 8 µM): 1.16
- relative viability (NCI-H2085; first compound 0.253 µM): 0.876
- relative viability (NCI-H2085; first compound 0.8 µM): 0.877
- relative viability (NCI-H2085; first compound 2.53 µM): 1.03
- relative viability (NCI-H2085; first compound 8 µM): 0.933
- relative viability (NCI-H322M; first compound 0.253 µM): 0.912
- relative viability (NCI-H322M; first compound 0.8 µM): 1.06
- relative viability (NCI-H322M; first compound 2.53 µM): 0.856
- relative viability (NCI-H322M; first compound 8 µM): 0.708
- relative viability (NCI-H3122; first compound 0.253 µM): 1.02
- relative viability (NCI-H3122; first compound 0.8 µM): 1.04
- relative viability (NCI-H3122; first compound 2.53 µM): 0.996
- relative viability (NCI-H3122; first compound 8 µM): 0.998
- relative viability (PC-14; first compound 0.253 µM): 0.925
- relative viability (PC-14; first compound 0.8 µM): 0.988
- relative viability (PC-14; first compound 2.53 µM): 0.978
- relative viability (PC-14; first compound 8 µM): 0.969
- relative viability (UMC-11; first compound 0.253 µM): 1.03
- relative viability (UMC-11; first compound 0.8 µM): 0.927
- relative viability (UMC-11; first compound 2.53 µM): 1.08
- relative viability (UMC-11; first compound 8 µM): 1.04
- relative viability (NCI-H1993; first compound 0.253 µM): 0.708
- relative viability (NCI-H1993; first compound 0.8 µM): 0.706
- relative viability (NCI-H1993; first compound 2.53 µM): 0.73
- relative viability (NCI-H1993; first compound 8 µM): 0.708
- relative viability (NCI-H1734; first compound 0.253 µM): 0.878
- relative viability (NCI-H1734; first compound 0.8 µM): 1
- relative viability (NCI-H1734; first compound 2.53 µM): 0.934
- relative viability (NCI-H1734; first compound 8 µM): 0.688
- relative viability (H3255; first compound 0.253 µM): 0.996
- relative viability (H3255; first compound 0.8 µM): 0.957
- relative viability (H3255; first compound 2.53 µM): 1.06
- relative viability (H3255; first compound 8 µM): 0.871
- relative viability (NCI-H1651; first compound 0.253 µM): 0.995
- relative viability (NCI-H1651; first compound 0.8 µM): 0.968
- relative viability (NCI-H1651; first compound 2.53 µM): 1.18
- relative viability (NCI-H1651; first compound 8 µM): 0.973
- relative viability (EKVX; first compound 0.253 µM): 0.861
- relative viability (EKVX; first compound 0.8 µM): 0.93
- relative viability (EKVX; first compound 2.53 µM): 1.19
- relative viability (EKVX; first compound 8 µM): 0.792
- relative viability (NCI-H460; first compound 0.253 µM): 0.777
- relative viability (NCI-H460; first compound 0.8 µM): 0.821
- relative viability (NCI-H460; first compound 2.53 µM): 1.25
- relative viability (NCI-H460; first compound 8 µM): 0.622
- relative viability (RERF-LC-KJ; first compound 0.253 µM): 0.905
- relative viability (RERF-LC-KJ; first compound 0.8 µM): 0.79
- relative viability (RERF-LC-KJ; first compound 2.53 µM): 0.892
- relative viability (RERF-LC-KJ; first compound 8 µM): 0.943
- relative viability (NCI-H1437; first compound 0.253 µM): 0.992
- relative viability (NCI-H1437; first compound 0.8 µM): 1.15
- relative viability (NCI-H1437; first compound 2.53 µM): 1.21
- relative viability (NCI-H1437; first compound 8 µM): 1.08
- relative viability (NCI-H2087; first compound 0.253 µM): 0.98
- relative viability (NCI-H2087; first compound 0.8 µM): 0.919
- relative viability (NCI-H2087; first compound 2.53 µM): 0.915
- relative viability (NCI-H2087; first compound 8 µM): 1.09
- relative viability (NCI-H2405; first compound 0.253 µM): 0.816
- relative viability (NCI-H2405; first compound 0.8 µM): 1.05
- relative viability (NCI-H2405; first compound 2.53 µM): 0.9
- relative viability (NCI-H2405; first compound 8 µM): 0.675
- relative viability (NCI-H2347; first compound 0.253 µM): 0.952
- relative viability (NCI-H2347; first compound 0.8 µM): 1.03
- relative viability (NCI-H2347; first compound 2.53 µM): 1
- relative viability (NCI-H2347; first compound 8 µM): 0.808
- relative viability (NCI-H358; first compound 0.253 µM): 0.751
- relative viability (NCI-H358; first compound 0.8 µM): 0.752
- relative viability (NCI-H358; first compound 2.53 µM): 0.773
- relative viability (NCI-H358; first compound 8 µM): 0.703
- relative viability (COR-L23; first compound 0.253 µM): 0.991
- relative viability (COR-L23; first compound 0.8 µM): 1.12
- relative viability (COR-L23; first compound 2.53 µM): 1.01
- relative viability (COR-L23; first compound 8 µM): 0.906
- relative viability (NCI-H23; first compound 0.253 µM): 0.452
- relative viability (NCI-H23; first compound 0.8 µM): 0.493
- relative viability (NCI-H23; first compound 2.53 µM): 0.688
- relative viability (NCI-H23; first compound 8 µM): 0.45
- relative viability (LXF-289; first compound 0.253 µM): 0.961
- relative viability (LXF-289; first compound 0.8 µM): 0.994
- relative viability (LXF-289; first compound 2.53 µM): 1.01
- relative viability (LXF-289; first compound 8 µM): 1.03
